Where a SMILES comes first, the peptide text is derived from it. [ ]: non-standard residue; d: D form. The star is where a group is joined. Tle = CC(C)(C)[C@H](N)C(=O)O; X1 = C[C@@H](CCCCCN)C(=O)*
Columns and labels:
CYP2B6 = molecular target: T1, CYP2B6 (Homo sapiens, UniProt P20813); assay: Liver CYP screening: CYP2B6; conditions: 10^−3, 10^−2, 0.1 M
T1 sequence (P20813 1-491): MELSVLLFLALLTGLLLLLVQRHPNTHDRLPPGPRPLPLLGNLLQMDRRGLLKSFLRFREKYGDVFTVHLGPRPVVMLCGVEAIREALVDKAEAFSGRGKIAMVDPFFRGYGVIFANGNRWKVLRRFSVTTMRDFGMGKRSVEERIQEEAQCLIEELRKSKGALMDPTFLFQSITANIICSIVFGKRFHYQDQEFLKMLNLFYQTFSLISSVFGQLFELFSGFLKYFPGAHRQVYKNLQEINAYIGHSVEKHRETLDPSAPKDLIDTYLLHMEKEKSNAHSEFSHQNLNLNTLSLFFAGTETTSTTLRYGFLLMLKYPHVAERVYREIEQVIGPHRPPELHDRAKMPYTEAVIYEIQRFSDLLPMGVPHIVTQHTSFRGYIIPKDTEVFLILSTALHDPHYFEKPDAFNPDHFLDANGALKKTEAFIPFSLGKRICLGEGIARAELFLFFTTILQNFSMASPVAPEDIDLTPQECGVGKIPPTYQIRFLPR
Excerpt: (§1) Liver Receptor Screening (Stanford Research Institute Study B213-06).

[1] = Blood and plasma pharmacokinetics of ABS201 in rats
Excerpt: At selected time points, blood was removed or brain harvested and the concentration of the peptide analog determined using LC/MS/MS.
These samples were then used for the determination of plasma and brain drug levels by LC/MS/MS for estimating BBB penetration and pharmacokinetic parameters.

mouse bone marrow cells = assay: Micronucleus study; type: in vivo; conditions: oral, CD-1 mice; initial data
Method: Genetic Toxicology. […] Experimental protocols are as follows.
In the micronucleus study, 90 CD-1 mice used in the study consisted of 10/sex/group in Groups 1-4 (control, low-, mid-, and high-dose) and 5/sex in the positive control group. Test peptide as administered orally, the positive control, Cyclophosphamide at 80 mg/kg, as administered orally. Approximately 24 and 48 hours after dosing, mice were killed and bone marrow obtained from both femurs. A slide of a bone marrow suspension was prepared, stained with Wright-Giemsa stain, dried, and scored blind. The number of polychromatic erythrocytes (PCE) among the total erythrocytes (PCE+normochromatic erythrocytes (NCE)) were determined for each animal by counting at least 200 erythrocytes. The number of micronucleated polychromatic erythrocytes (MPCE) then were scored for 2000 PCE per animal. A positive result was obtained if there is a positive dose-response trend or statistically significant increase in the number of MPCE at one or more dose levels compared to controls.

[2] = molecular target: hERG (human ether-a-go-go related gene) channels (Homo sapiens, UniProt Q12809); conditions: HEK293, 35±2° C.; initial results
hERG (human ether-a-go-go related gene) channels, sequence (Q12809 whole entry): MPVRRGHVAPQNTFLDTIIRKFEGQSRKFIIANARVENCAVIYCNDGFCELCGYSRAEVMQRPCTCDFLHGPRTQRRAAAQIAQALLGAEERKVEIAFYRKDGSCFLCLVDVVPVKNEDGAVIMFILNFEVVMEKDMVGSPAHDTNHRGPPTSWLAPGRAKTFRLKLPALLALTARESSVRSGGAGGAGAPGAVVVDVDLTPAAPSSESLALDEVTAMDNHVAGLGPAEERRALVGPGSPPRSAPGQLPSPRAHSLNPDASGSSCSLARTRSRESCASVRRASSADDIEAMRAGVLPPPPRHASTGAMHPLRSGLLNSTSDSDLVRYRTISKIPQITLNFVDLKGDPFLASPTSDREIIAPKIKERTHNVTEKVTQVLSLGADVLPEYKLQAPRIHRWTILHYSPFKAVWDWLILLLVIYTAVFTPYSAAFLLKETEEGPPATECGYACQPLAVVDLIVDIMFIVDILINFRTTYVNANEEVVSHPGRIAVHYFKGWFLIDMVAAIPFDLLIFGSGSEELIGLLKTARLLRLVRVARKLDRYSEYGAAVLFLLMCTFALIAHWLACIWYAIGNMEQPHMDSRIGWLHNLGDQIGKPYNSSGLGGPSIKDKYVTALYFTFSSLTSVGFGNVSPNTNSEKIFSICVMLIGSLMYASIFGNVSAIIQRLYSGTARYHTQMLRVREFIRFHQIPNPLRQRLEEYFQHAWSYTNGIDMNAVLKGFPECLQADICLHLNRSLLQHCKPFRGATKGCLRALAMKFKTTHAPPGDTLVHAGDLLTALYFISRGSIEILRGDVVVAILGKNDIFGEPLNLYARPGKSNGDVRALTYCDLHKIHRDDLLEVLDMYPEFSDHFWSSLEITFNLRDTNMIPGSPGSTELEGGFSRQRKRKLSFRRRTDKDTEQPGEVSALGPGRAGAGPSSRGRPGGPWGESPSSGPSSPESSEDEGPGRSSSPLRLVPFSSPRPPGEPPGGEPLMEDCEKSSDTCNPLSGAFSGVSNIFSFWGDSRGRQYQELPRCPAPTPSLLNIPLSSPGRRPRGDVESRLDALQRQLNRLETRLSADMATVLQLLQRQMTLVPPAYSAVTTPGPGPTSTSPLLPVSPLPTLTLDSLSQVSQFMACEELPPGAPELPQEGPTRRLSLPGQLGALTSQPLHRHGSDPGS
Method: hERG Assay. The objective of the hERG study is to assess the effects of the test article on the rapidly activating inward rectifying potassium current (IKr) conducted by hERG (human ether-a-go-go related gene) channels stably expressed in a HEK293 cell line. The method used is as follows. HEK293 cells, stably transfected with hERG cDNA, were used in the study. All experiments were performed at near-physiological temperature (35±2° C.). A positive control (60 nM terfenadine) was applied to two cells (n≧2). Cells were be transferred to the recording chamber and superfused with HB-PS solution. The recording chamber and bathing solution were maintained at a temperature of 35±2° C. using a combination of in-line solution pre-heater, chamber floor heater, and feedback temperature controller. Bath temperature were measured using a thermistor probe.
Patch pipettes were made from glass capillary tubing using a P-97 micropipette puller (Sutter Instruments, Calif.). A commercial patch clamp amplifier was used for whole cell recordings. Before digitization, current records were low-pass filtered at one-fifth of the sampling frequency.
Cells stably expressing hERG were held at −80 mV.

CYP3A4 = CYP3A4 (Homo sapiens, UniProt P08684); assay: Liver CYP screening: CYP3A4; conditions: 10^−3, 10^−2, 0.1 M
CYP3A4, sequence (P08684 whole entry): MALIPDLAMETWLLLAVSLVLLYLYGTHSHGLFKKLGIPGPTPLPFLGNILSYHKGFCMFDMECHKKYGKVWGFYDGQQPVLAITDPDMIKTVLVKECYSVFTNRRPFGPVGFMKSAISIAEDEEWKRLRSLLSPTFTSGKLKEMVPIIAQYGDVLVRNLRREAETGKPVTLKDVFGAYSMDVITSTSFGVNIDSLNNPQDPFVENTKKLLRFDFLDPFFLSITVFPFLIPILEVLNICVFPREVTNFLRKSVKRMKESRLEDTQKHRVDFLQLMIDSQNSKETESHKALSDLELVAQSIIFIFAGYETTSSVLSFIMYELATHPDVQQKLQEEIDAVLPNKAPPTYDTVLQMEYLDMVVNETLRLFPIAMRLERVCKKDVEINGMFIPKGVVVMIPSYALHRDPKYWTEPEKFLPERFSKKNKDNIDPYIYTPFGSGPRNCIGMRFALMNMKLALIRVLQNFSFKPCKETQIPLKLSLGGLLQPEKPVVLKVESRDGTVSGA
Excerpt: as §1

[3] = whole blood, 5 or 30 min at 37° C.
CYP1A2 = molecular target: T2, CYP1A2 (Homo sapiens, UniProt P05177); assay: Liver CYP screening: CYP1A2; conditions: 10^−3, 10^−2, 0.1 M
T2 sequence (P05177 1-516): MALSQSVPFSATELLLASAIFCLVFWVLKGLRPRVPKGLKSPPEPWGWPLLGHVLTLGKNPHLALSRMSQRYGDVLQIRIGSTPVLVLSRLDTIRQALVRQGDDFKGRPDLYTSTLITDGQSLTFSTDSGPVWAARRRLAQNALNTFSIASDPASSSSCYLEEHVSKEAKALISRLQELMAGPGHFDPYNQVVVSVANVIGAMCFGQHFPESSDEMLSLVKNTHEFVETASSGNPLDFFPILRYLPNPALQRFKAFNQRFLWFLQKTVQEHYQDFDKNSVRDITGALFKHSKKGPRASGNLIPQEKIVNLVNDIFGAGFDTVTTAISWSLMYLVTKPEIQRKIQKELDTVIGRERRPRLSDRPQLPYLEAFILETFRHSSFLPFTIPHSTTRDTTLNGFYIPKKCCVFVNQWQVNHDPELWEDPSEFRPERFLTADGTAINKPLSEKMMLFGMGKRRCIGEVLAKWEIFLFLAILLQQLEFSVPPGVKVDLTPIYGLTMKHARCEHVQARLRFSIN
Excerpt: as §1

[4] = Method: These samples were used for the determination of plasma drug by LC/MS/MS for estimating pharmacokinetic parameters and segmental absorption. The bioavailability of intra-stomach, intra-duodenum, intra-jejunum, intra-colon administration relative to intravenous administration and gavage was calculated.
[5] = Catalepsy, horizontal bar test; conditions: Table 11
Method: Cataleptic Analysis. In laboratory tests, catalepsy is characterized by the inability of an animal to correct its position after placement in an unnatural posture. […] To circumvent these potential confounding factors, tests are performed on an animal only once in a quiet, controlled environment.
Catalepsy Assessment. […] Rats were given an IP injection of peptide (5 mg/Kg), saline, or haloperidol (1 mg/kg). After 3 hours, catalepsy was measured using the horizontal bar test. Briefly, the front paws were placed directly on a horizontal bar 5 mm in diameter placed 7.5 cm above the cage floor. The rat was held in this position for 3 sec and then released. The time from release until the paws return to the cage floor was measured and recorded. A cut-off time of 30 sec was observed; this indicated a fully cataleptic animal as cataleptic animals are frozen to the bar. […] Measures were repeated every 30 min for 4 hr. Data are means±SEM (p<0.01).
After 2 h, catalepsy was measured using the horizontal bar test. Data are means±SEM (p<0.01).

[6] = Acute toxicity, clinical observation and maximum tolerated dose in rats; type: in vivo, rat
Method: During the 2 and 24 hour post-dosing clinical observation periods, measurements of core body temperatures were taken.

CYP2C9 = CYP2C9 (Homo sapiens, UniProt P11712); assay: Liver CYP screening: CYP2C9; conditions: 10^−3, 10^−2, 0.1 M
CYP2C9, sequence (P11712 whole entry): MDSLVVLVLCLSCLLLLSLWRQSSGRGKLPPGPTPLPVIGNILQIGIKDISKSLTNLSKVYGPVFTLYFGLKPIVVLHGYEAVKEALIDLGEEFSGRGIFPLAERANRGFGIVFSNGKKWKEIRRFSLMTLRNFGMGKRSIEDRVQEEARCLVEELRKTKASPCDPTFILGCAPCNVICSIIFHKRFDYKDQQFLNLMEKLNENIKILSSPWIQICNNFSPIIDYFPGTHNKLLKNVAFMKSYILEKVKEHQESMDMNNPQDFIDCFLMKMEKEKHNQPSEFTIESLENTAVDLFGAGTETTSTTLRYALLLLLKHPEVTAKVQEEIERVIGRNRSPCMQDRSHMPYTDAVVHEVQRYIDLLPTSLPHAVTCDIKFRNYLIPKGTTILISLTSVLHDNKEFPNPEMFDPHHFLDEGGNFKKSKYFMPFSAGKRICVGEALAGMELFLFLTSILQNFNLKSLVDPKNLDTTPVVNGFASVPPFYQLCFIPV
Excerpt: as §1

CYP2C19 = CYP2C19 (Homo sapiens, UniProt P33261); assay: Liver CYP screening: CYP2C19; conditions: 10^−3, 10^−2, 0.1 M
CYP2C19, sequence (P33261 whole entry): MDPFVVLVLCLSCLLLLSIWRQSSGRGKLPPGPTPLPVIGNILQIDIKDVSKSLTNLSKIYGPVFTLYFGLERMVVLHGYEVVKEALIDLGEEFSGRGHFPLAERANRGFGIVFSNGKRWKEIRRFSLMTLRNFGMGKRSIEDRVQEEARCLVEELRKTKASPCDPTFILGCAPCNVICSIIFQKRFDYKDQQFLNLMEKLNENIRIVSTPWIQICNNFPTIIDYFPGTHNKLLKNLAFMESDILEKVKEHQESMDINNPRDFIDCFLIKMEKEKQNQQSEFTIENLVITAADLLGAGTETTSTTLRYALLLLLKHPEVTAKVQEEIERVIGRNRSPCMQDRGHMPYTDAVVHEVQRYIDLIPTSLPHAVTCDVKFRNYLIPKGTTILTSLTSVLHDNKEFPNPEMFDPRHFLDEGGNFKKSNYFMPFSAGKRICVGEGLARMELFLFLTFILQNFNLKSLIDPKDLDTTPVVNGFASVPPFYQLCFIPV
Excerpt: as §1

[7] = 5 or 30 min incubation at 37° C.
CYP2D6 = CYP2D6 (Homo sapiens, UniProt P10635); assay: Liver CYP screening: CYP2D6; conditions: 10^−3, 10^−2, 0.1 M
CYP2D6, sequence (P10635 whole entry): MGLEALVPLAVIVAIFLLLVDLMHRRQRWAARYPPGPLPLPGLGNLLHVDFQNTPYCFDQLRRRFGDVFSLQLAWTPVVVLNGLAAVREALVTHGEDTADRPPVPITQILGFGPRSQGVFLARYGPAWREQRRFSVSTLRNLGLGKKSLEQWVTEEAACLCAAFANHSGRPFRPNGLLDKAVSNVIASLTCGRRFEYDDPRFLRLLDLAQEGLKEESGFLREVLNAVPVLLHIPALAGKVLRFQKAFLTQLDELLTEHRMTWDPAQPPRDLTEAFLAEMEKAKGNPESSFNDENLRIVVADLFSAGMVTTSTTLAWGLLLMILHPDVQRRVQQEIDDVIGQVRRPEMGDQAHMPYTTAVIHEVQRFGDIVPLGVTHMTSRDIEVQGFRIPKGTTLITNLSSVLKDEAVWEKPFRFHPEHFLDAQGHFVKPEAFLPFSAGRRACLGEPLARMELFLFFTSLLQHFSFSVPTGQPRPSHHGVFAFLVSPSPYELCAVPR
Excerpt: as §1

CC(C)C[C@H](NC(=O)[C@@H](NC(=O)[C@H](Cc1ccc(O)cc1)NC(=O)[C@@H]1CCCN1C(=O)[C@H](CCCNC(=N)N)NC(=O)[C@@H](C)CCCCCN)C(C)(C)C)C(=O)O [ABS201, hLys-Arg-Pro-Tyr-t-Leu-Leu] (X1-RPY[Tle]L-OH)
inhibition of substrate binding (CYP2B6): No inhibition
time by which plasma levels decreased below the LLOD ([1]; IV 1 mg/kg): ≤ 45 min
clearance as % of rat hepatic blood flow ([1]; IV 5 mg/kg): 74.02%
time over which measurable in whole blood ([1]; IV 5 mg/kg): up to 120 minutes
time over which detectable in the blood and brain ([1]; IV 5 mg/kg or oral 50 mg/kg, LC/MS/MS): up to 120 minutes
micronucleus study result (mouse bone marrow cells): inactive
hERG study result [2]: inactive
inhibition of substrate binding (CYP3A4): No inhibition
distribution into blood cellular elements [3]: about 33%
inhibition of substrate binding (CYP1A2): No inhibition
segment with maximal uptake ([4]; in situ looped models): intra-duodenum exhibiting the maximal amount of uptake
site of absorption in the GI tract ([4]; in situ looped models): absorbed almost entirely in the intestine
uptake in the stomach ([4]; intra-stomach): Virtually no ABS201 is taken up in the stomach
Catalepsy [5]: No
lower limit for the MTD ([6]; rat, in vivo): ≥ 100 times the ED50
Toxicity, dose without toxicity ([6]; single acute dose I.P.): (>100 × ED50)
Toxicity ([6]; single acute dose at 100x ED50 administered I.P.): No
inhibition of substrate binding (CYP2C9): No inhibition
inhibition of substrate binding (CYP2C19): No inhibition
binding to plasma proteins [7]: little or no binding
inhibition of substrate binding (CYP2D6): No inhibition

— patent US20080234202A1, “Non-natural amino acids and neurotensin analogues” (priority 2004, published 2008)
